# Measurements: patent US12043599B2, “Herbicidal compounds” (SYNGENTA PARTICIPATIONS AG, priority 2018, dated 2024)
# How the values were obtained:
# Format in all cases: in vivo
# Details in all cases: 250 g/h, evaluated after 13 days
# [1] = test system: Alopecurus myosuroides (ALOMY); test: Pre-emergence herbicidal glasshouse test, percentage damage
# In short: (§1)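 Spray solution: acetone/water (50:50), 0.5% Tween 20, applied at 250 g/h. Timing: 1 d (pre-emergence) or 8 d (post-emergence) after sowing. Readout: % plant damage at 13 d, banded 1–5.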
# [2] = test system: Avena fatua (AVEFA); test: as above
# In short: as §1
# [3] = test system: Echinochloa crus-galli (ECHCG); test: as above
# In short: as §1
# [4] = test system: Lolium perenne (LOLPE); test: as above
# In short: as §1
# [5] = test system: Setaria faberi (SETFA); test: as above
# In short: as §1
# [6] = test system: Setaria faberi (SETFA); test: Post-emergence herbicidal glasshouse test, percentage damage
# In short: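 Wheat, barley and Setaria faberi were sprayed post-emergence after 8 days' growth (24/16 °C, 14 h light, 65% humidity) with compound in acetone/water (50:50) containing 0.5% Tween 20, at the indicated rates. On wheat, compounds were also applied with cloquintocet-mexyl at 50 g/ha. Damage was scored after 13 days on a five-point scale (5=80-100% to 1=0-19%).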
# [7] = test system: Alopecurus myosuroides (ALOMY); test: as above
# In short: as §1
# [8] = test system: Avena fatua (AVEFA); test: as above
# In short: as §1
# [9] = test system: Echinochloa crus-galli (ECHCG); test: as above
# In short: as §1
# [10] = test system: Lolium perenne (LOLPE); test: as above
# In short: as §1
Structure (SMILES),ALOMY PRE percentage damage (five point scale) [1],AVEFA PRE percentage damage (five point scale) [2],ECHCG PRE percentage damage (five point scale) [3],LOLPE PRE percentage damage (five point scale) [4],SETFA PRE percentage damage (five point scale) [5],SETFA POST percentage damage (five point scale) [6],ALOMY POST percentage damage (five point scale) [7],AVEFA POST percentage damage (five point scale) [8],ECHCG POST percentage damage (five point scale) [9],LOLPE POST percentage damage (five point scale) [10]
CC#Cc1cc(C)c(C2=C(OS(=O)(=O)c3ccccn3)CC3(CCN(S(=O)(=O)c4ccccn4)CC3)CC2=O)c(C)c1 [Compound P17],5 (5=80-100%),3 (3=40-59%),5 (5=80-100%),4 (4=60-79%),4 (4=60-79%),5 (5=80-100%),5 (5=80-100%),5 (5=80-100%),5 (5=80-100%),5 (5=80-100%)
CC#Cc1cc(C)c(C2=C(OC(=O)COC)CC3(CCN(C(=O)COC)CC3)CC2=O)c(C)c1 [Compound P18],5 (5=80-100%),5 (5=80-100%),5 (5=80-100%),5 (5=80-100%),5 (5=80-100%),5 (5=80-100%),5 (5=80-100%),5 (5=80-100%),5 (5=80-100%),5 (5=80-100%)
CC#Cc1cc(C)c(C2=C(OC(=O)OC)CC3(CCN(C(=O)COC)CC3)CC2=O)c(C)c1 [Compound P19],5 (5=80-100%),5 (5=80-100%),5 (5=80-100%),5 (5=80-100%),5 (5=80-100%),5 (5=80-100%),5 (5=80-100%),5 (5=80-100%),5 (5=80-100%),5 (5=80-100%)
CC#Cc1cc(C)c(C2=C(OC(=O)c3ccccc3F)CC3(CCN(C(=O)c4ccccc4F)CC3)CC2=O)c(C)c1 [Compound P20],5 (5=80-100%),3 (3=40-59%),5 (5=80-100%),5 (5=80-100%),5 (5=80-100%),5 (5=80-100%),5 (5=80-100%),5 (5=80-100%),5 (5=80-100%),5 (5=80-100%)
CC#Cc1cc(C)c(C2=C(OC(=O)OC)CC3(CCN(C(=O)OC(C)(C)C)CC3)CC2=O)c(C)c1 [Compound P21],5 (5=80-100%),4 (4=60-79%),5 (5=80-100%),5 (5=80-100%),5 (5=80-100%),5 (5=80-100%),5 (5=80-100%),5 (5=80-100%),5 (5=80-100%),5 (5=80-100%)
CC#Cc1cc(C)c(C2=C(OC(=O)OC)CC3(CCN(C(=O)c4ccccn4)CC3)CC2=O)c(C)c1 [Compound P24],5 (5=80-100%),5 (5=80-100%),5 (5=80-100%),5 (5=80-100%),5 (5=80-100%),5 (5=80-100%),5 (5=80-100%),5 (5=80-100%),5 (5=80-100%),5 (5=80-100%)
CC#Cc1cc(C)c(C2=C(OC(=O)c3ccccn3)CC3(CCN(C(=O)c4ccccn4)CC3)CC2=O)c(C)c1 [Compound P25],5 (5=80-100%),5 (5=80-100%),5 (5=80-100%),5 (5=80-100%),5 (5=80-100%),5 (5=80-100%),5 (5=80-100%),5 (5=80-100%),5 (5=80-100%),5 (5=80-100%)
CC#Cc1cc(C)c(C2=C(OC(=O)OC)CC3(CCN(C(=O)C(C)(C)C#N)CC3)CC2=O)c(C)c1 [Compound P27],5 (5=80-100%),5 (5=80-100%),5 (5=80-100%),5 (5=80-100%),5 (5=80-100%),5 (5=80-100%),5 (5=80-100%),5 (5=80-100%),5 (5=80-100%),5 (5=80-100%)
CC#Cc1cc(C)c(C2=C(OC(=O)OC)CC3(CCN(S(C)(=O)=O)CC3)CC2=O)c(C)c1 [Compound P28],5 (5=80-100%),5 (5=80-100%),5 (5=80-100%),5 (5=80-100%),5 (5=80-100%),5 (5=80-100%),5 (5=80-100%),5 (5=80-100%),5 (5=80-100%),5 (5=80-100%)
